From patent US9795590B2, “Anti-inflammatory agents as virostatic compounds” (Panoptes Pharma GmbH, priority 2014, dated 2017)

Tests used:
DHODH (human) = DHODH (human) (Homo sapiens, UniProt Q02127); experiment: DHODH in vitro enzymatic activity assay (human); format: biochemical
Description: (§1) Pharmacological parameters of compound 1 (Table 2) were determined by standard procedures, i.e. DHODH and kinase activity assays were performed according to Davis et al., (1996. The immunosuppressive metabolite of leflunomide is a potent inhibitor of human dihydroorotate dehydrogenase.

DHODH (mouse) = DHODH (mouse) (Mus musculus, UniProt O35435); experiment: DHODH in vitro enzymatic activity assay (mouse); format: biochemical; details: read-out: Inhibitory activity in vitro (IC50) DHODH (mouse)
PI3K-α/-β/-γ/-δ = experiment: kinase activity assay PI3K; format: biochemical; details: read-out: Inhibitory activity in vitro (IC50) PI3K-α/-β/-γ/-δ
Description: as §1

AKT-1/-2/-3 = experiment: kinase activity assay AKT; format: biochemical; details: read-out: Inhibitory activity in vitro (IC50) AKT-1/-2/-3
Description: as §1

JAK-1/-2/-3 = experiment: kinase activity assay JAK; format: biochemical; details: read-out: Inhibitory activity in vitro (IC50) JAK-1/-2/-3
Description: as §1

[1] = system: Human adenovirus type 2 (HAdV-2); experiment: plaque reduction assay HAdV-2 in A549; format: cell-based; details: Human mastadenovirus C, A549, n = 8, read-out: IC50 antiviral activity against HAdV-2
Description: (§2) Antiviral assays were performed as described in the literature (Marschall, M. et al., 2000. Antimicrob. Agents Chemother. 44, 1588-1597; Marschall M. et al., 2012. Antimicrob. Agents Chemother. 56, 1135-1137; Kindsmüller et al., 2009. J. Virol. 83, 9045-9056; Rechter et al., 2006. Antiviral Res. 72, 197-206).

A549 = experiment: drug-induced cytotoxicity, microscopic evaluation, A549; format: cell-based; details: HAdV-2 experiment, A549, 1-10 μM
[2] = system: HHV-6, human herpesvirus type 6A, strain U1102; experiment: antiviral assay HHV-6 in J-JHAN; format: cell-based; details: n = 8, read-out: IC50 of virus replication HHV-6
Description: as §2

[3] = system: VZV, varicella zoster virus, strain Oka; experiment: antiviral assay VZV in primary human fibroblasts; format: cell-based; details: Human alphaherpesvirus 3, Fibroblast, read-out: IC50 of virus replication VZV
Description: as §2

[4] = system: HSV-1, herpes simplex virus type 1, strain 166v VP22-GFP; experiment: GFP-based reporter assay HSV-1 in Vero; format: cell-based; details: Human alphaherpesvirus 1, Vero, read-out: IC50 of virus replication HSV-1
Description: as §2

[5] = system: HSV-2, herpes simplex virus type 2, isolate 01-6332; experiment: antiviral assay HSV-2 in Vero; format: cell-based; details: Human alphaherpesvirus 2, n = 4, read-out: IC50 of virus replication HSV-2
Description: as §2

[6] = system: EBV, Epstein-Barr virus, strain B95-8; experiment: antiviral assay EBV in 293T (T81GFP); format: cell-based; details: human gammaherpesvirus 4, n = 4, read-out: IC50 of virus replication EBV
Description: as §2

[7] = system: Vaccina (vaccine virus, strain IHD-5); experiment: antiviral assay vaccinia virus in primary human fibroblasts; format: cell-based; details: Orthopoxvirus vaccinia, Fibroblast, read-out: IC50 of virus replication Vaccina
Description: as §2

J-JHAN = experiment: drug-induced cytotoxicity, microscopic evaluation, J-JHAN; format: cell-based; details: HHV-6 experiment
[8] = system: primary human fibroblasts; experiment: drug-induced cytotoxicity, microscopic evaluation, primary human fibroblasts; format: cell-based
Vero = experiment: drug-induced cytotoxicity, microscopic evaluation, Vero; format: cell-based
293T (T81GFP) = experiment: drug-induced cytotoxicity, microscopic evaluation, 293T (T81GFP); format: cell-based; details: EBV experiment
HAdV A31 = experiment: virus yield assay HAdV A31 in A549; format: cell-based, human adenovirus; details: MOI 20, supernatant transfer 4 d post-infection, n=1
Description: (§3) A549 cells were infected at MOI 20 and continuously treated with the given concentrations of compound 1. Virus-containing supernatants were transferred to uninfected cells at 4 d^1, 6 d^2 or 2 d^3 post-infection, respectively, and used for quantitation of infectious virus. Percentages of virus-positive cells per total cells were determined on the basis of indirect immunofluorescence staining (monoclonal anti-adenovirus hexon protein antibody; Abcam B025-AD51/ab7428) by microscopic countings: n=4 for C02, C05, D19, D37; n=3 for B03k, E04k; n=1 for A31, B03, D08, E04.

HAdV B03 = experiment: virus yield assay HAdV B03 in A549; format: cell-based, human adenovirus; details: MOI 20, supernatant transfer 6 d post-infection, n=1
Description: as §3

HAdV B03k = experiment: virus yield assay HAdV B03k (clinical isolate) in A549; format: cell-based, human adenovirus; details: MOI 20, supernatant transfer 6 d post-infection, n=3
Description: as §3

HAdV C02 = experiment: virus yield assay HAdV C02 in A549; format: cell-based, human adenovirus; details: MOI 20, supernatant transfer 2 d post-infection, n=4
Description: as §3

HAdV C05 = experiment: virus yield assay HAdV C05 in A549; format: cell-based, human adenovirus; details: MOI 20, supernatant transfer 2 d post-infection, n=4
Description: as §3

HAdV D08 = experiment: virus yield assay HAdV D08 in A549; format: cell-based, human adenovirus; details: MOI 20, supernatant transfer 4 d post-infection, n=1
Description: as §3

HAdV D19 = experiment: virus yield assay HAdV D19 in A549; format: cell-based, human adenovirus; details: MOI 20, supernatant transfer 4 d post-infection, n=4
Description: as §3

HAdV D37 = experiment: virus yield assay HAdV D37 in A549; format: cell-based, human adenovirus; details: MOI 20, supernatant transfer 6 d post-infection, n=4
Description: as §3

HAdV E04 = experiment: virus yield assay HAdV E04 in A549; format: cell-based, human adenovirus; details: MOI 20, supernatant transfer 6 d post-infection, n=1
Description: as §3

HAdV E04k = experiment: virus yield assay HAdV E04k (clinical isolate) in A549; format: cell-based, human adenovirus; details: MOI 20, supernatant transfer 6 d post-infection, n=3
Description: as §3

Sequence of DHODH (human) (Q02127 whole entry): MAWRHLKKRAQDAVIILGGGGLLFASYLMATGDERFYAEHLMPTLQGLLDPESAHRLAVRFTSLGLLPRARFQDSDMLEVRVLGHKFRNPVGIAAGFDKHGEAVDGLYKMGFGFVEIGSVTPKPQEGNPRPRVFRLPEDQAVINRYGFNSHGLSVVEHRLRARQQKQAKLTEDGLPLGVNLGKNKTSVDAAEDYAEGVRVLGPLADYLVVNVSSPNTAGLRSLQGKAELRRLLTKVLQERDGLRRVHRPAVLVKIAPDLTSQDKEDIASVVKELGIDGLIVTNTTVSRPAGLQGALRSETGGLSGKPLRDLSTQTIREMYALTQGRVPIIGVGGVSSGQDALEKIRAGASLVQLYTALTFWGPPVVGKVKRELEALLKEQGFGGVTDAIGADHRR
Sequence of DHODH (mouse) (O35435 whole entry): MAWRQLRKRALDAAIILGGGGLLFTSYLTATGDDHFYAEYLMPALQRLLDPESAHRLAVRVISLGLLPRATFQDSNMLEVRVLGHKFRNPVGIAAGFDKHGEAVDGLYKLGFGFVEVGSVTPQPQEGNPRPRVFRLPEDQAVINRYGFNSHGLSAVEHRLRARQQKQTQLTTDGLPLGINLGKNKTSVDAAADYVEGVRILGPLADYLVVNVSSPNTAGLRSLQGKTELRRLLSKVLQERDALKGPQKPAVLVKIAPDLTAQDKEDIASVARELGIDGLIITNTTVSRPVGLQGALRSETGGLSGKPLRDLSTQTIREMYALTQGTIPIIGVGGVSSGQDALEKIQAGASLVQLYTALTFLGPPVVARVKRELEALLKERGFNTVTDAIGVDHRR

Q: Which IC50 (DHODH (human); purified human DHODH, read-out: Inhibitory activity in vitro (IC50) DHODH (human)) does the source give for `O=C(Nc1c(F)c(F)c(-c2cccc(OC(F)(F)F)c2)c(F)c1F)c1ccsc1C(=O)O` [compound 1, 3-(2,3,5,6-tetrafluoro-3′-trifluoromethoxy-biphenyl-4-ylcarbamoyl)-thiophene-2-carboxylic acid] here?
A: 1.5 ± 0.2 nM

Q: What about the IC50 (DHODH (mouse)) of the same compound?
A: 3.2 ± 0.8 nM

Q: What about the IC50 (PI3K-α/-β/-γ/-δ) of the same compound?
A: > 1000 nM

Q: And the IC50 (AKT-1/-2/-3)?
A: > 15000 nM

Q: And the IC50 (JAK-1/-2/-3)?
A: > 10000 nM

Q: And the IC50 [1]?
A: 560 ± 20 nM

Q: What about the “Cytotoxicity [1-10 μM]” value (A549) of the same compound?
A: None

Q: What about the “Cytotoxicity [1-10 μM]” value (A549; listed as Compound 1) of the same compound?
A: none

Q: And the IC50 [2]?
A: 1550 ± 310 nM

Q: What about the IC50 [3] of the same compound?
A: 3550 ± 260 nM

Q: What about the IC50 [4] of the same compound?
A: > 10000 nM

Q: And the IC50 [5]?
A: > 10000 nM

Q: What about the IC50 [6] of the same compound?
A: > 10000 nM

Q: What about the IC50 [7] of the same compound?
A: 9850 ± 6610 nM

Q: And the “Cytotoxicity [1-10 μM]” value (J-JHAN)?
A: none

Q: What about the “Cytotoxicity [1-10 μM]” value ([8]; VZV experiment) of the same compound?
A: none

Q: What about the “Cytotoxicity [1-10 μM]” value ([8]; Vaccina experiment) of the same compound?
A: none

Q: What about the “Cytotoxicity [1-10 μM]” value (Vero; HSV-1 experiment) of the same compound?
A: none

Q: What about the “Cytotoxicity [1-10 μM]” value (Vero; HSV-2 experiment) of the same compound?
A: none

Q: What about the “Cytotoxicity [1-10 μM]” value (293T (T81GFP)) of the same compound?
A: none

Q: What about the “virus-positive cells (0 μM = 100), HAdV A31” value (HAdV A31; 0.37 μM) of the same compound?
A: 72%

Q: And the “virus-positive cells (0 μM = 100), HAdV A31” value (HAdV A31; 1.11 μM)?
A: 3%

Q: What about the “virus-positive cells (0 μM = 100), HAdV B03” value (HAdV B03; 0.37 μM) of the same compound?
A: 127%

Q: And the “virus-positive cells (0 μM = 100), HAdV B03” value (HAdV B03; 1.11 μM)?
A: 29%

Q: And the “virus-positive cells (0 μM = 100), HAdV B03k” value (HAdV B03k; 0.37 μM)?
A: 70%

Q: What about the “virus-positive cells (0 μM = 100), HAdV B03k” value (HAdV B03k; 1.11 μM) of the same compound?
A: 11%

Q: What about the “virus-positive cells (0 μM = 100), HAdV C02” value (HAdV C02; 0.37 μM) of the same compound?
A: 100%

Q: What about the “virus-positive cells (0 μM = 100), HAdV C02” value (HAdV C02; 1.11 μM) of the same compound?
A: 9%

Q: And the “virus-positive cells (0 μM = 100), HAdV C05” value (HAdV C05; 0.37 μM)?
A: 82%

Q: What about the “virus-positive cells (0 μM = 100), HAdV C05” value (HAdV C05; 1.11 μM) of the same compound?
A: 6%

Q: And the “virus-positive cells (0 μM = 100), HAdV D08” value (HAdV D08; 0.37 μM)?
A: 6%

Q: What about the “virus-positive cells (0 μM = 100), HAdV D08” value (HAdV D08; 1.11 μM) of the same compound?
A: 0%

Q: What about the “virus-positive cells (0 μM = 100), HAdV D19” value (HAdV D19; 0.37 μM) of the same compound?
A: 81%

Q: What about the “virus-positive cells (0 μM = 100), HAdV D19” value (HAdV D19; 1.11 μM) of the same compound?
A: 4%

Q: What about the “virus-positive cells (0 μM = 100), HAdV D37” value (HAdV D37; 0.37 μM) of the same compound?
A: 96%

Q: And the “virus-positive cells (0 μM = 100), HAdV D37” value (HAdV D37; 1.11 μM)?
A: 3%

Q: What about the “virus-positive cells (0 μM = 100), HAdV E04” value (HAdV E04; 0.37 μM) of the same compound?
A: 128%

Q: What about the “virus-positive cells (0 μM = 100), HAdV E04” value (HAdV E04; 1.11 μM) of the same compound?
A: 23%

Q: What about the “virus-positive cells (0 μM = 100), HAdV E04k” value (HAdV E04k; 0.37 μM) of the same compound?
A: 115%

Q: What about the “virus-positive cells (0 μM = 100), HAdV E04k” value (HAdV E04k; 1.11 μM) of the same compound?
A: 9%

Q: `Nc1nc2c(ncn2COC(CO)CO)c(=O)[nH]1` [GCV, reference compound] was tested. Which DHODH activity remaining (DHODH (human); at 10 μM, duplicate testings) did it give?
A: 100%
